Measured values taken from ChEMBL document CHEMBL2331282, “9-[2-(R)-(Phosphonomethoxy)propyl]-2,6-diaminopurine (R)-PMPDAP and its prodrugs: optimized preparation, including identification of by-products formed, and antiviral evaluation in vitro” (Bioorg Med Chem, 2013).

Tested on: Vaccinia virus
Assay: Antiviral activity against Vaccinia virus infected in human HEL cells assessed as reduction of virus-induced cytopathogenicity
Assay type: functional, organism-based
Details: Orthopoxvirus vaccinia

C[C@@H](O)CNc1nc(N)c2ncn(C[C@@H](C)O)c2n1
EC50: > 100 µg/mL

C[C@@H](O)CNc1nc(N)nc2c1ncn2C[C@@H](C)O
EC50: > 100 µg/mL

C[C@H](Cn1cnc2c(NCP(=O)(O)O)nc(N)nc21)OCP(=O)(O)O
EC50: > 100 µg/mL
